Measured values from US20240400508A1, “ALKYL-SUBSTITUTED DERIVATIVES OF […] ME[…] […] USES THEREOF” (Sensorium Therapeutics, Inc., priority 2022, published 2024).

Tests used:
SERT = target: T1, SERT (Homo sapiens, UniProt P31645); assay: SERT inhibition assay (Neurotransmitter Transportation Fluorescence assay); assay type: cell-based; conditions: stable 5HTT cells, assay of Example B1
T1 construct: expressed in transfected cells
Description: SERT inhibition was measured using a Neruotransmitter Transportation Fluorescence assay. Briefly, stable SHTT cells were prepared in a 384 microwell plate. Compounds were prepared in assay buffer (20 mM HEPES in HBSS, 0.1% BSA). The compounds were added to the plated cells and incubated for 30 minutes at 37° C. 25 μL of dye solution (Molecular Devices Neurotransmitter Transporter Uptake Assay Kit) was added per well and incubated for 30 minutes at 37° C. The plates were then read on a plate reader.

PDE4D2 = target: T2, PDE4D2 (Homo sapiens, UniProt Q08499); assay: Recombinant PDE4 isoform inhibition assay (BPS Bioscience kit, fluorescence polarization); assay type: biochemical
T2 construct: purchased BPS Bioscience
Description: (§1) Recombinant PDE assay inhibition can be measured according to the BPS Bioscience PDE4 assay kit, as described below.
(§2) • 1) Dilute 20 μM FAM-Cyclic-3′, 5′-AMP stock 100-fold with PDE buffer to make a 200 nM
(§3) • 2) Add 25 μl of FAM-Cyclic-3′,5′-AMP (200 nM) to each well designated “Positive Control”, “Test Inhibitor”, and “Substrate Control”. • 3) Add 20 μl of PDE assay buffer to each well designated “Substrate Control” and 45 μl of PDE assay buffer to each well designated “Blank”. • 4) Add 5 μl of inhibitor solution to each well designated “Test Inhibitor”. For the wells labeled “Positive Control”, “Substrate Control” and “Blank”, add 5 μl of the same solution without inhibitor (inhibitor buffer). • 5) Thaw PDE on ice. Upon first thaw, briefly spin tube containing enzyme to recover the full contents of the tube. • 6) Dilute PDE4 in PDE buffer to 7.5 pg/μl (0.15 ng/reaction)*. Initiate reaction by adding 20 μl of PDE4 (7.5 pg/μl) to the wells designated “Positive Control” and “Test Inhibitor.” • 7) Incubate at room temperature for 1 hour.
(§4) • 1) Mix binding agent thoroughly and dilute binding agent 1:100 with binding agent diluent. • 2) Add 100 μl diluted binding agent to each microwell. Incubate at room temperature for 1 hour with slow shaking. • 3) Read the fluorescent polarization of the sample in a microtiter-plate reader equipped for the measurement of fluorescence polarization, capable of excitation at wavelengths ranging from 485±5 nm and detection of emitted light ranging from 528±10 nm. Blank value is subtracted from all other values.

PDE4B2 = target: T3, PDE4B2 (Homo sapiens, UniProt Q07343); assay: as above; assay type: biochemical
T3 construct: purchased BPS Bioscience
Description: as §1, §2, §3, §4

PDE4A1A = target: T4, PDE4A1A (Homo sapiens, UniProt P27815); assay: as above; assay type: biochemical
T4 construct: purchased BPS Bioscience
Description: as §1, §2, §3, §4

PDE4C1 = target: T5, PDE4C1 (Homo sapiens, UniProt Q08493); assay: as above; assay type: biochemical
T5 construct: purchased BPS Bioscience
Description: as §1, §2, §3, §4

[1] = cited from earlier work

T2 sequence (Q08499 303-809 limits assumed): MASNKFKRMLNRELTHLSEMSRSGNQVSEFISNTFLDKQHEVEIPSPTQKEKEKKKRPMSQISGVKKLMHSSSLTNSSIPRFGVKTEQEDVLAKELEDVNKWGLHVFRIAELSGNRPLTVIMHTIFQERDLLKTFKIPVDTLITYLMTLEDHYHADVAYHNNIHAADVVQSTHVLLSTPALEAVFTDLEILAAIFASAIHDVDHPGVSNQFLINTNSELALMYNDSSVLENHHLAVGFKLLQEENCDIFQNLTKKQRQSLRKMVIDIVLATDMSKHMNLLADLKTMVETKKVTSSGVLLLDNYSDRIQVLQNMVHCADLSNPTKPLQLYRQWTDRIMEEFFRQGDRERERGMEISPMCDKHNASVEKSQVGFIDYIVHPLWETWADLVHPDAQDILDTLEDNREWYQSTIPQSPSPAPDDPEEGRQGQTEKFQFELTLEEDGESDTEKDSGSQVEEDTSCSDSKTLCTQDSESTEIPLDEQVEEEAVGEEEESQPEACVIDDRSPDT
T5 sequence (Q08493 whole entry): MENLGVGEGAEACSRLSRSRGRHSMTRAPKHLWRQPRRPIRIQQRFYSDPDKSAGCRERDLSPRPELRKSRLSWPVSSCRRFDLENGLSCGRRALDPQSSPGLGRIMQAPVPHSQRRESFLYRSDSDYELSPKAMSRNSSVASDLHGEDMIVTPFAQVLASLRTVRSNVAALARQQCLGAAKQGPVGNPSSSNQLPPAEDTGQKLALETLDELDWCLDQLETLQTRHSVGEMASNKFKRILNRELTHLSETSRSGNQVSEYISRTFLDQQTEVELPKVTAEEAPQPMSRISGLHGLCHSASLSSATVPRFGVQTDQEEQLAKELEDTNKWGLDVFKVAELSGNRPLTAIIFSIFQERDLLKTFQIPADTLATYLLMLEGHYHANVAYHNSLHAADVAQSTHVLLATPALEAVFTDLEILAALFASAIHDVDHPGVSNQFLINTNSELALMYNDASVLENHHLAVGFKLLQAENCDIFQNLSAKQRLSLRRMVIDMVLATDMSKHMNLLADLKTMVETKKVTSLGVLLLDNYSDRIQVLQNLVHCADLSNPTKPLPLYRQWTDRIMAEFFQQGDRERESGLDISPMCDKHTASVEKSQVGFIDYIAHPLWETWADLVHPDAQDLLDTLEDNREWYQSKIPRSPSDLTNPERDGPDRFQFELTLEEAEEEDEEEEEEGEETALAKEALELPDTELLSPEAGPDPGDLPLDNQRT
T4 sequence (P27815 1-647 isoform P27815-4): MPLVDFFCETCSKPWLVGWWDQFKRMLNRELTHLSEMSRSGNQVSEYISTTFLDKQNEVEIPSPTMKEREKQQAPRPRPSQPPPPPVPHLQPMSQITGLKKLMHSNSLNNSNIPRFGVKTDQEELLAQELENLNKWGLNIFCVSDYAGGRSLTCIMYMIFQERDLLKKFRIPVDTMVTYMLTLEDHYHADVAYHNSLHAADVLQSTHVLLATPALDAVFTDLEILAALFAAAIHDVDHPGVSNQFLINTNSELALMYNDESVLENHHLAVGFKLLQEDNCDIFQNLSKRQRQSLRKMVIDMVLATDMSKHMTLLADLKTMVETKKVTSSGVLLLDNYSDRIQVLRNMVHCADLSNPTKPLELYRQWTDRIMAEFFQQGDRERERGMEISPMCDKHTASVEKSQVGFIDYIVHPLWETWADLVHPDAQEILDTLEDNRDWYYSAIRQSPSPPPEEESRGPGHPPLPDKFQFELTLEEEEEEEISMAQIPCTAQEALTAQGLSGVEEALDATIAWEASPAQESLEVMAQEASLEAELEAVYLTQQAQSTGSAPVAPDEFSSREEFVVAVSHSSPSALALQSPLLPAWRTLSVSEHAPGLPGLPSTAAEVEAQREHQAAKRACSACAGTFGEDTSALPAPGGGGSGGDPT
T1 sequence (P31645 whole entry, species assumed): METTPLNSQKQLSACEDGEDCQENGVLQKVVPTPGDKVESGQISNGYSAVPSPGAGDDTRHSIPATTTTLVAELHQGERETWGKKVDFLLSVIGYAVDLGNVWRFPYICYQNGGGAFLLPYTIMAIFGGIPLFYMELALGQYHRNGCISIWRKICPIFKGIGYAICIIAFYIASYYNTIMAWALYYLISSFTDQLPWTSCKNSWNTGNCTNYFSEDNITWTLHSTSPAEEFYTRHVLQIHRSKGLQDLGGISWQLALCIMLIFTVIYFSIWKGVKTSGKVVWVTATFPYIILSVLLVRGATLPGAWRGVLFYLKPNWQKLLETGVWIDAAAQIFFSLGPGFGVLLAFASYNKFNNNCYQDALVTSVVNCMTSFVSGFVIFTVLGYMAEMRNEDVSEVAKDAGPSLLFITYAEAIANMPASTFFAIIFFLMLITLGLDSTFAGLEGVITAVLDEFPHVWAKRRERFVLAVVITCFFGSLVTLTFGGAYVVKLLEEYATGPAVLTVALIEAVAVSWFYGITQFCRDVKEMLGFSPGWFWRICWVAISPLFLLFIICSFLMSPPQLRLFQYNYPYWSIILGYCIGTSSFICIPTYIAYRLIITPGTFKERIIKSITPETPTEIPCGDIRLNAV
T3 sequence (Q07343 1-564 isoform Q07343-2): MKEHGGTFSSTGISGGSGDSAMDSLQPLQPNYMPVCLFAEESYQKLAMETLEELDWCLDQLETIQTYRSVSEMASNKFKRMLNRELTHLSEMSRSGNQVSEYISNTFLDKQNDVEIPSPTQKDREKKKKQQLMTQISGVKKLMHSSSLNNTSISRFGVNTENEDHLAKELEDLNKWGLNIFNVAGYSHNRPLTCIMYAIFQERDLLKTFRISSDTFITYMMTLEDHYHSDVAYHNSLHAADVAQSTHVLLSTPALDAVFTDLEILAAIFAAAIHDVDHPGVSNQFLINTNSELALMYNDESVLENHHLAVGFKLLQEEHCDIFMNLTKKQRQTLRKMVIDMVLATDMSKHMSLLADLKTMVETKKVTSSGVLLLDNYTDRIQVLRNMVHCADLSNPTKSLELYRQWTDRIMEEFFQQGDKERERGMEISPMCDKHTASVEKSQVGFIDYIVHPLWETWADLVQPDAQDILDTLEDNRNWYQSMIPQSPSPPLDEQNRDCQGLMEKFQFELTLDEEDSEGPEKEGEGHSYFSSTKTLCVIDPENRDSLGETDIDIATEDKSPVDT

SMILES: COc1ccc([C@]23CCN(C)[C@H]2CC(=O)C[C@H]3C)cc1OC (single isomer, unassigned) [Compound 102]
- IC50 (SERT): < 250 nM
- inhibition at 10 µM (PDE4D2): < 20%
- inhibition at 10 µM (PDE4B2): < 20%
- inhibition at 10 µM (PDE4A1A): < 20%
- inhibition at 10 µM (PDE4C1): < 20%

SMILES: COc1ccc([C@@]23CCN(C)[C@@H]2CC(=O)C[C@@H]3C)cc1OC (single isomer, unassigned) [Compound 103]
- IC50 (SERT): < 250 nM
- inhibition at 10 µM (PDE4D2): < 20%
- inhibition at 10 µM (PDE4B2): < 20%
- inhibition at 10 µM (PDE4A1A): < 20%
- inhibition at 10 µM (PDE4C1): < 20%

SMILES: COc1ccc([C@@]23CCC(=O)C[C@@H]2N(C)CC3)cc1OC [(−) mesembrine]
- half-life in plasma [1]: less than 2 hours
